Laboratory results as given in paper PMC9019904, “AD Informer Set: Chemical tools to facilitate Alzheimer's disease drug discovery” (Alzheimer's & Dementia : Translational Research & Clinical …, 2022).
In brackets after ≈: the same amount, converted by molar mass. Counter-ions that a name gives are not always drawn.

Tests used:
[1] = system: BV2 (mouse microglia) cell line; assay: pHrodo-myelin phagocytosis/cell viability high content imaging assay: viability (cell count, nuclear area, nuclear intensity)
Summary of the method: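 Immortalized microglia are treated with compound (10 μM, single concentration) for 48 h, the final 20 h alongside pHrodo-myelin. Data are the mean of duplicates, reported as % of untreated control.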

[2] = system: BV2 (mouse microglia) cell line; assay: pHrodo-myelin phagocytosis/cell viability high content imaging assay: phagocytosis signal; assay type: cell-based
Summary of the method: (§1)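 Simultaneous phagocytosis/viability imaging at approximately 22 h after adding pHrodo-myelin. Rising intensity flagged early apoptosis and falling intensity later apoptosis.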

[3] = system: HMC3 (human microglia) cell line; assay: as above; assay type: cell-based
Summary of the method: as §1

[4] = Kinetic solubility in aqueous buffer pH 7.4 by total chemiluminescent nitrogen determination (Analiza); details: aqueous buffer, pH 7.4, aqueous buffer, kinetic from dmso stock

## O=C(NC1CCNCC1)c1n[nH]cc1NC(=O)c1c(Cl)cccc1Cl [AT-7519]
[1]; BV2, 10 μM
  Mouse microglial cytotoxicity at 10 μM (<70% control): Y (The compound was found to be cytotoxic (cell count threshold: <70% control) when murine immortalized microglial cells were dosed at 10 μM (Y: yes))
[2]; BV2, 10 μM
  Inhibition of mouse microglial phagocytosis at 10 μM (<70% control): Y (The compound was found to inhibit phagocytosis (response threshold: <70% control) when murine immortalized microglial cells were dosed at 10 μM (Y: yes))
[3]; HMC3, 10 μM
  Stimulation of human microglial phagocytosis at 10 μM (>150% control): Y (The compound was found to stimulate phagocytosis (response threshold: >150% control) when human immortalized microglial cells were dosed at 10 μM (Y: yes))
[4]
  solubility kinetic: 146 µM (≈ 55.8 µg/mL)

## CN(C)C/C=C/C(=O)Nc1cc2c(Nc3ccc(F)c(Cl)c3)ncnc2cc1O[C@H]1CCOC1 [Afatinib]
[1]; BV2, 10 μM
  Mouse microglial cytotoxicity at 10 μM (<70% control): Y (The compound was found to be cytotoxic (cell count threshold: <70% control) when murine immortalized microglial cells were dosed at 10 μM (Y: yes))
[2]; BV2, 10 μM
  Inhibition of mouse microglial phagocytosis at 10 μM (<70% control): Y (The compound was found to inhibit phagocytosis (response threshold: <70% control) when murine immortalized microglial cells were dosed at 10 μM (Y: yes))
[3]; HMC3, 10 μM
  Inhibition of human microglial phagocytosis at 10 μM (<70% control): Y (The compound was found to inhibit phagocytosis (response threshold: <70% control) when human immortalized microglial cells were dosed at 10 μM (Y: yes))
[4]
  solubility kinetic: 117 µM (≈ 56.7 µg/mL)

## O=C(/C=C/c1ccco1)Nc1ncc(Cc2ccccc2)s1 [Compound 1]
[1]; 10 μM, BV2
  Mouse microglial cytotoxicity at 10 μM (<70% control): Y (The compound was found to be cytotoxic (cell count threshold: <70% control) when murine immortalized microglial cells were dosed at 10 μM (Y: yes))
[2]; 10 μM, BV2
  Inhibition of mouse microglial phagocytosis at 10 μM (<70% control): Y (The compound was found to inhibit phagocytosis (response threshold: <70% control) when murine immortalized microglial cells were dosed at 10 μM (Y: yes))
[3]; 10 μM, HMC3
  Inhibition of human microglial phagocytosis at 10 μM (<70% control): Y (The compound was found to inhibit phagocytosis (response threshold: <70% control) when human immortalized microglial cells were dosed at 10 μM (Y: yes))
[4]
  solubility kinetic: < 1.1 µM

## CS[C@@]1(C(=O)Nc2ccc3[nH]nc(-c4ccc(OC(C)C)nc4)c3c2)CCN(CC(=O)N2CC=C(c3ccc(-c4ncn(C)n4)cc3)CC2)C1 [MK-8353]
[1]; 10 μM, BV2
  Mouse microglial cytotoxicity at 10 μM (<70% control): Y (The compound was found to be cytotoxic (cell count threshold: <70% control) when murine immortalized microglial cells were dosed at 10 μM (Y: yes))
[2]; 10 μM, BV2
  Stimulation of mouse microglial phagocytosis at 10 μM (>150% control): Y (The compound was found to stimulate phagocytosis (response threshold: >150% control) when murine immortalized microglial cells were dosed at 10 μM (Y: yes))
[3]; 10 μM, HMC3
  Inhibition of human microglial phagocytosis at 10 μM (<70% control): Y (The compound was found to inhibit phagocytosis (response threshold: <70% control) when human immortalized microglial cells were dosed at 10 μM (Y: yes))
[4]
  solubility kinetic: 4.8 µM (≈ 3.32 µg/mL)

## O=C(Nc1ccc2[nH]nc(-c3ccncc3)c2c1)[C@@H]1CCN(CC(=O)N2CCN(c3ccc(-c4ncccn4)cc3)CC2)C1 [SCH772984]
[1]; 10 μM, BV2
  Mouse microglial cytotoxicity at 10 μM (<70% control): Y (The compound was found to be cytotoxic (cell count threshold: <70% control) when murine immortalized microglial cells were dosed at 10 μM (Y: yes))
[2]; 10 μM, BV2
  Stimulation of mouse microglial phagocytosis at 10 μM (>150% control): Y (The compound was found to stimulate phagocytosis (response threshold: >150% control) when murine immortalized microglial cells were dosed at 10 μM (Y: yes))
[3]; 10 μM, HMC3
  Inhibition of human microglial phagocytosis at 10 μM (<70% control): Y (The compound was found to inhibit phagocytosis (response threshold: <70% control) when human immortalized microglial cells were dosed at 10 μM (Y: yes))
[4]
  solubility kinetic: 6.2 µM (≈ 3.64 µg/mL)

## O=C(O)CCCc1nc(-c2ccc(Cl)c(Cl)c2)c(-c2ccccc2)o1 [SWE101]
[2]; BV2, 10 μM
  Stimulation of mouse microglial phagocytosis at 10 μM (>150% control): Y (The compound was found to stimulate phagocytosis (response threshold: >150% control) when murine immortalized microglial cells were dosed at 10 μM (Y: yes))
[3]; HMC3, 10 μM
  Inhibition of human microglial phagocytosis at 10 μM (<70% control): Y (The compound was found to inhibit phagocytosis (response threshold: <70% control) when human immortalized microglial cells were dosed at 10 μM (Y: yes))
[4]
  solubility kinetic: 155 µM (≈ 58.4 µg/mL)

## CO[C@H]1C[C@@H]2CC[C@@H](C)[C@@](O)(O2)C(=O)C(=O)N2CCCC[C@H]2C(=O)O[C@H]([C@H](C)C[C@@H]2CC[C@@H](O)[C@H](OC)C2)CC(=O)[C@H](C)/C=C(\C)[C@@H](O)[C@@H](OC)C(=O)[C@H](C)C[C@H](C)/C=C/C=C/C=C/1C [Sirolimus]
[1]; 10 μM, BV2
  Mouse microglial cytotoxicity at 10 μM (<70% control): Y (The compound was found to be cytotoxic (cell count threshold: <70% control) when murine immortalized microglial cells were dosed at 10 μM (Y: yes))
[2]; 10 μM, BV2
  Stimulation of mouse microglial phagocytosis at 10 μM (>150% control): Y (The compound was found to stimulate phagocytosis (response threshold: >150% control) when murine immortalized microglial cells were dosed at 10 μM (Y: yes))
[3]; 10 μM, HMC3
  Inhibition of human microglial phagocytosis at 10 μM (<70% control): Y (The compound was found to inhibit phagocytosis (response threshold: <70% control) when human immortalized microglial cells were dosed at 10 μM (Y: yes))
[4]
  solubility kinetic: 19.8 µM (≈ 18.1 µg/mL)

## O=S(=O)(c1ccccc1)N(CC(F)(F)F)c1ccc(C(O)(C(F)(F)F)C(F)(F)F)cc1 [T 0901317]
[2]; 10 μM, BV2
  Stimulation of mouse microglial phagocytosis at 10 μM (>150% control): Y (The compound was found to stimulate phagocytosis (response threshold: >150% control) when murine immortalized microglial cells were dosed at 10 μM (Y: yes))
[3]; 10 μM, HMC3
  Inhibition of human microglial phagocytosis at 10 μM (<70% control): Y (The compound was found to inhibit phagocytosis (response threshold: <70% control) when human immortalized microglial cells were dosed at 10 μM (Y: yes))
[4]
  solubility kinetic: 40 µM (≈ 19.3 µg/mL)

## O=C(CCl)c1ccccc1Nc1cccc(C(F)(F)F)c1 [TED-347]
[2]; BV2, 10 μM
  Stimulation of mouse microglial phagocytosis at 10 μM (>150% control): Y (The compound was found to stimulate phagocytosis (response threshold: >150% control) when murine immortalized microglial cells were dosed at 10 μM (Y: yes))
[3]; HMC3, 10 μM
  Inhibition of human microglial phagocytosis at 10 μM (<70% control): Y (The compound was found to inhibit phagocytosis (response threshold: <70% control) when human immortalized microglial cells were dosed at 10 μM (Y: yes))
[4]
  solubility kinetic: 40.8 µM (≈ 12.8 µg/mL)

## COc1ccc(CCCN2CCC(COC(c3ccccc3)c3ccccc3)CC2)cc1 [UK-78282 HCl]
[2]; 10 μM, BV2
  Stimulation of mouse microglial phagocytosis at 10 μM (>150% control): Y (The compound was found to stimulate phagocytosis (response threshold: >150% control) when murine immortalized microglial cells were dosed at 10 μM (Y: yes))
[3]; 10 μM, HMC3
  Inhibition of human microglial phagocytosis at 10 μM (<70% control): Y (The compound was found to inhibit phagocytosis (response threshold: <70% control) when human immortalized microglial cells were dosed at 10 μM (Y: yes))
[4]
  solubility kinetic: 796 µM
